{
  "source": "patent US11007171B2",
  "about": "“Treatment and prevention of joint disorders” (Summit Innovation Labs, LLC, priority 2017, dated 2021)",
  "origin": "cited, not measured here",
  "key": {"[1]": {"settings": "compared with vitamin E"}, "[2]": {"settings": "in vivo"}, "[3]": {"system": "high fat diet-induced obese mice", "settings": "compared with controls"}, "[4]": {"system": "Porphyromonas gingivalis, Prevotella gingivalis, and Actinobacillus actinomycetemcomitans", "settings": "periodontopathic microorganisms"}, "Runx2": {"system": "Runx2", "set-up": "key: ↓: Downregulate Inducers of arthritis"}, "[5]": {"system": "Human Chondrocytes Treated with Hydrogen Peroxide or Growth-Related Oncogene a"}, "VEGF": {"system": "VEGF", "set-up": "key: ↓: Downregulate Inducers of arthritis"}, "AP1": {"system": "AP1", "set-up": "key: ↓: Downregulate Inducers of arthritis"}, "NF-κB": {"system": "NF-κB", "set-up": "key: ↓: Downregulate Inducers of arthritis"}, "P38 MAPK": {"system": "P38 MAPK", "set-up": "key: ↓: Downregulate Inducers of arthritis"}, "[6]": {"system": "rabbit articular chondrocytes", "settings": "rabbit articular chondrocytes in vitro"}, "[7]": {"system": "human bone marrow-derived mesenchymal stem cells (hBMSCs)", "settings": "especially at a concentration of 5 μM"}, "[8]": {"system": "23 fungi strains including Candida species", "settings": "fairly low concentration"}, "[9]": {"system": "Collagen induced rheumatoid arthritis", "settings": "quercetin supplementation"}, "[10]": {"settings": "doses of a few grams a day in either humans or animals"}, "cartilage": {"system": "cartilage", "settings": "by inhibiting iNOS expression"}, "[11]": {"system": "rats fed a high cholesterol diet"}, "[12]": {"settings": "after 4 weeks, 500 mg/day"}, "[13]": {"system": "experimental osteoarthritis", "settings": "intraarticular magnesium sulfate (MgSO4)"}, "NMDAR": {"system": "NMDAR", "set-up": "key: ↓: Downregulate Inducers of arthritis"}, "male C57BL/6J mice": {"system": "male C57BL/6J mice", "settings": "0.4% (w/w), 4-8 week-old male C57BL/6J mice"}, "[14]": {"system": "OA cartilage of animal model and IL-1β treated human chondrocytes", "settings": "resveratrol injection"}, "[15]": {"system": "rheumatoid arthritis synovial fibroblast (RASF)"}, "FGF": {"system": "FGF", "set-up": "key: ↓: Downregulate Inducers of arthritis"}, "[16]": {"system": "acute antigen-induced arthritis model"}, "[17]": {"system": "pigs with the equivalent of human metabolic syndrome"}, "HIF-2α": {"system": "HIF-2α", "set-up": "key: ↓: Downregulate Inducers of arthritis"}, "[18]": {"system": "Human Articular Cartilage and Chondrosarcoma Cells"}, "RA": {"system": "RA", "settings": "by suppressing IL-1β, TNF-α, NF-κB, COX2 and PGE2, MMPs, and arthritis index through induction of SIRT1"}, "[19]": {"system": "advanced glycation end products stimulated chondrocytes"}, "mice fed high fat diet": {"system": "mice fed high fat diet", "settings": "oral"}, "[20]": {"system": "osteoarthritis chondrocytes"}, "C57BL/6 mice": {"system": "C57BL/6 mice", "settings": "local intra-articular injection"}, "Bax": {"system": "Bax", "set-up": "key: ↓: Downregulate Inducers of arthritis"}, "mTOR": {"molecular_target": "mTOR (Homo sapiens, UniProt P42345)", "set-up": "key: ↓: Downregulate Inducers of arthritis"}},
  "data": [
    {"compound": "C=CCc1ccc(O)c(-c2cc(CC=C)ccc2O)c1", "note": "[magnolol, 4-Allyl-2-(5-allyl-2-hydroxy-phenyl)phenol]", "values": [
      {"measurement": "antioxidant activity, potency relative to vitamin E", "setting": "[1]", "value": 1000, "unit": "times"},
      {"measurement": "oral bioavailability", "setting": "[2]", "value": "4-5%"},
      {"measurement": "glucose tolerance", "setting": "[3]", "value": "improved"},
      {"measurement": "plasma total cholesterol and glucose levels", "setting": "[3]", "value": "significantly reduced"},
      {"measurement": "cytotoxic effect on human gingival cells", "setting": "human gingival cells", "value": "relatively low cytotoxic effect"},
      {"measurement": "antimicrobial activity", "setting": "[4]", "value": "significant antimicrobial activity"},
      {"measurement": "fasting blood glucose and plasma insulin levels", "setting": "type 2 diabetic rats", "value": "reduced"}
    ]},
    {"compound": "OCCc1ccc(O)c(O)c1", "note": "[Hydroxytyrosol, 4-(2-Hydroxyethyl)-1,2-benzenediol]", "values": [
      {"measurement": "Downregulate Runx2", "setting": "Runx2", "value": "↓"},
      {"measurement": "level of SIRT1 mRNA", "setting": "[5]; in the presence of GROα", "value": "HT treatment significantly increased the level of SIRT1 mRNA in the presence of"},
      {"measurement": "chondrocytes apoptosis, DNA damage", "setting": "[5]; pretreatment of chondrocytes, oxidative stress or GROα", "value": "Pretreatment of chondrocytes with HT (a) prevented chondrocytes apoptosis, DNA"},
      {"measurement": "Downregulate VEGF", "setting": "VEGF", "value": "↓"}
    ]},
    {"compound": "epigallocatechin-3-gallate [EGCG]", "values": [
      {"measurement": "Downregulate AP1", "setting": "AP1", "value": "↓"},
      {"measurement": "Downregulate NF-κB", "setting": "NF-κB", "value": "↓"},
      {"measurement": "AGEs induced expression of TNF-α and MMP-13", "setting": "OA chondrocytes", "value": "Significantly decreased AGEs induced expression of TNF-α and MMP-13 in OA"},
      {"measurement": "Downregulate P38 MAPK", "setting": "P38 MAPK", "value": "↓"},
      {"measurement": "IL-1β-induced IL-6 and IL-8 synthesis", "setting": "RASF", "value": "Inhibited IL-1β-induced IL-6 and IL-8 synthesis in RASF via suppressing"},
      {"measurement": "chondrocyte proliferation, production of collagen type II and aggrecan", "setting": "[6]", "value": "Enhanced chondrocyte proliferation, production of collagen type II and aggrecan."},
      {"measurement": "osteogenic effect on hBMSCs", "setting": "[7]", "value": "strong stimulatory effect"}
    ]},
    {"compound": "(−)-epicatechin-(4β→8)-(−)-epicatechin [procyanidin B2]", "values": [
      {"measurement": "OA progression", "setting": "OA animal model", "value": "Pcy and components of Pcy (procyanidin B2 and B3) slowed OA progression,"}
    ]},
    {"compound": "COc1cc(/C=C/C(=O)CC(=O)/C=C/c2ccc(O)c(OC)c2)ccc1O", "note": "[Curcumin, (1E,6E)-1,7-Bis(4-hydroxy-3-methoxyphenyl)-1,6-heptadiene-3,5-dione]", "values": [
      {"measurement": "IL-1β induced chondrocytes apoptosis", "setting": "chondrocytes", "value": "Inhibited IL-1β induced chondrocytes apoptosis, by suppressing caspase-3"},
      {"measurement": "Downregulate NF-κB", "setting": "NF-κB", "value": "↓"},
      {"measurement": "Downregulate P38 MAPK", "setting": "P38 MAPK", "value": "↓"},
      {"measurement": "antifungal activity", "setting": "[8]", "value": "potent antifungal activity"},
      {"measurement": "adhesion of Candida species to human buccal epithelial cells", "setting": "Candida species", "value": "inhibitory effect"}
    ]},
    {"compound": "O=c1c(O)c(-c2ccc(O)c(O)c2)oc2cc(O)cc(O)c12", "note": "[Quercetin, 3,5,7,3′,4′-pentahydroxyflavone]", "values": [
      {"measurement": "progression of RA (arthritis score and paw swelling), elastase activity, oxidative stress and NO expression", "setting": "[9]", "value": "Quercetin supplementation (a) reduced progression of RA as indicated by a reduction"},
      {"measurement": "Downregulate NF-κB", "setting": "NF-κB", "value": "↓"},
      {"measurement": "expression of genes associated with mitochondrial biogenesis (PGC-1a and SIRT1), mitochondrial DNA content, and cytochrome-C concentration", "setting": "mice; 7 days, 12.5 or 25 mg/kg b.w., muscle and brain, mice", "value": "increases"},
      {"measurement": "maximal endurance capacity (time to fatigue) and voluntary wheel-running activity", "setting": "mice; treadmill running test, compared with placebo-treated mice", "value": "significantly increased"},
      {"measurement": "side effects", "setting": "[10]", "value": "no side effects"},
      {"measurement": "NF-κB activity, IL-1β, CRP, monocyte chemotactic protein-1", "setting": "rat adjuvant arthritis", "value": "Quercetin supplementation significantly reduced NF-κB activity, IL-1β, CRP,"},
      {"measurement": "plasma antioxidant activity", "setting": "rat adjuvant arthritis", "value": "monocyte chemotactic protein-1, and increased plasma antioxidant activity [Gardi C,"}
    ]},
    {"compound": "C=CCc1ccc(O)c(-c2ccc(O)c(CC=C)c2)c1", "note": "[honokiol]", "values": [
      {"measurement": "antioxidant activity, potency relative to vitamin E", "setting": "[1]", "value": 1000, "unit": "times"},
      {"measurement": "glucose tolerance", "setting": "[3]", "value": "improved"},
      {"measurement": "plasma total cholesterol and glucose levels", "setting": "[3]", "value": "significantly reduced"},
      {"measurement": "cytotoxic effect on human gingival cells", "setting": "human gingival cells", "value": "relatively low cytotoxic effect"},
      {"measurement": "antimicrobial activity", "setting": "[4]", "value": "significant antimicrobial activity"}
    ]},
    {"compound": "Oc1cc(O)c2c(c1)O[C@H](c1ccc(O)c(O)c1)[C@@H](O)[C@@H]2c1c(O)cc(O)c2c1O[C@H](c1ccc(O)c(O)c1)[C@@H](O)C2", "note": "[procyanidin B3]", "values": [
      {"measurement": "cartilage degradation and heterotopic ossification", "setting": "cartilage", "value": "Pcy B3 prevents cartilage degradation and heterotopic ossification (bone formation in"},
      {"measurement": "OA progression", "setting": "OA animal model", "value": "Pcy and components of Pcy (procyanidin B2 and B3) slowed OA progression,"}
    ]},
    {"compound": "COc1ccc([C@@H]2CC(=O)c3c(O)cc(O[C@@H]4O[C@H](CO[C@@H]5O[C@@H](C)[C@H](O)[C@@H](O)[C@H]5O)[C@@H](O)[C@H](O)[C@H]4O)cc3O2)cc1O", "note": "[hesperidin, hesperitin-7-O-rutinoside]", "values": [
      {"measurement": "inhibition of liver cholesterol biosynthesis", "setting": "[11]", "value": 28.3, "unit": "%"},
      {"measurement": "inhibition of the esterification of hepatic cholesterol", "setting": "[11]", "value": 23.7, "unit": "%"}
    ]},
    {"compound": "glucosyl-hesperidin [G-Hesperidin]", "values": [
      {"measurement": "triglyceride level", "setting": "[12]", "value": "marked decrease"}
    ]},
    {"compound": "Magnesium", "values": [
      {"measurement": "Downregulate NF-κB", "setting": "NF-κB", "value": "↓"},
      {"measurement": "cartilage degradation and chondrocyte apoptosis", "setting": "[13]", "value": "Reduced cartilage degradation and chondrocyte apoptosis deposition by blocking"},
      {"measurement": "Downregulate NMDAR", "setting": "NMDAR", "value": "↓"}
    ]},
    {"compound": "Oc1ccc(/C=C/c2cc(O)cc(O)c2)cc1", "note": "[Resveratrol, 3,5,4′-trihydroxy-trans-stilbene]", "values": [
      {"measurement": "Downregulate AP1", "setting": "AP1", "value": "↓"},
      {"measurement": "aerobic capacity", "setting": "male C57BL/6J mice", "value": "significantly increased"},
      {"measurement": "expression of collagen type II", "setting": "[14]", "value": "maintained"},
      {"measurement": "expression of iNOS and MMP-13", "setting": "[14]", "value": "reduced"},
      {"measurement": "apoptosis of rheumatoid arthritis synovial fibroblast (RASF)", "setting": "[15]", "value": "Resveratrol induced apoptosis of rheumatoid arthritis synovial fibroblast (RASF)"},
      {"measurement": "Downregulate FGF", "setting": "FGF", "value": "↓"},
      {"measurement": "knee swelling, histological score of synovial tissue, proliferating cell nuclear antigen (anti-PCNA), and proteins expressed by circulating microphages (CD 68, CD3)", "setting": "[16]", "value": "Resveratrol significantly reduced knee swelling, histological score of synovial tissue,"},
      {"measurement": "body mass indices, serum cholesterol and C-reactive protein", "setting": "[17]", "value": "lowered"},
      {"measurement": "glucose tolerance and endothelial function", "setting": "[17]", "value": "improved"},
      {"measurement": "Downregulate NF-κB", "setting": "NF-κB", "value": "↓"},
      {"measurement": "Downregulate HIF-2α", "setting": "HIF-2α", "value": "↓"},
      {"measurement": "FGF and IL-1β induced chondrocytes apoptosis, expression of cartilage degrading proteases (MMPs and aggrecanases) and decrease in proteoglycan biosynthesis", "setting": "[18]", "value": "Significantly reduced fibroblast growth factor (FGF) and IL-1β induced chondrocytes"},
      {"measurement": "RA development and progression", "setting": "RA", "value": "Resveratrol inhibited RA development and progression by suppressing inflammation"},
      {"measurement": "AGEs induced degradation of collagen type II", "setting": "[19]", "value": "production of NO and PGE2, prevented AGEs induced degradation of collagen type"},
      {"measurement": "AGEs induced expression and activity of MMP-13", "setting": "[19]", "value": "II, and decreased AGEs induced expression and activity of MMP-13 by down"},
      {"measurement": "OA severity", "setting": "mice fed high fat diet", "value": "Significantly reduced"},
      {"measurement": "chondrocyte apoptosis", "setting": "mice fed high fat diet", "value": "inhibited"},
      {"measurement": "collagen type II expression", "setting": "mice fed high fat diet", "value": "increased"},
      {"measurement": "type II collagen and proteoglycan degradation", "setting": "mice fed high fat diet", "value": "prevented"},
      {"measurement": "chondrocyte apoptosis", "setting": "[20]", "value": "Reduced chondrocyte apoptosis mediated by (a) an inhibition of proapoptotic protein"},
      {"measurement": "AC degradation", "setting": "C57BL/6 mice", "value": "delayed"},
      {"measurement": "OA symptoms", "setting": "C57BL/6 mice", "value": "reduced"},
      {"measurement": "matrix synthesis", "setting": "C57BL/6 mice", "value": "increased"},
      {"measurement": "Downregulate Bax", "setting": "Bax", "value": "↓"},
      {"measurement": "Downregulate mTOR", "setting": "mTOR", "value": "↓"}
    ]}
  ]
}
